Measurements from ChEMBL document CHEMBL5614398, “A comprehensive review of new small molecule drugs approved by the FDA in 2022: Advance and prospect” (Eur J Med Chem, 2024).

What was measured:
[1] = target: Structural capsid protein (Human immunodeficiency virus 1, UniProt Q76129); assay: Inhibition of HIV-1 NL4-3 monomeric capsid protein
[2] = Activation of Myosin ATPase activity in bovine Cardio-myofibril; design: species or system Bos taurus
[3] = target: Lanosterol 14-alpha demethylase (Candida albicans (strain SC5314 / ATCC MYA-2876) (Yeast), UniProt P10613); assay: Binding affinity to Candida albicans SC5314 CYP51 assessed as dissociation constant
Chain of Lanosterol 14-alpha demethylase (P10613 whole entry): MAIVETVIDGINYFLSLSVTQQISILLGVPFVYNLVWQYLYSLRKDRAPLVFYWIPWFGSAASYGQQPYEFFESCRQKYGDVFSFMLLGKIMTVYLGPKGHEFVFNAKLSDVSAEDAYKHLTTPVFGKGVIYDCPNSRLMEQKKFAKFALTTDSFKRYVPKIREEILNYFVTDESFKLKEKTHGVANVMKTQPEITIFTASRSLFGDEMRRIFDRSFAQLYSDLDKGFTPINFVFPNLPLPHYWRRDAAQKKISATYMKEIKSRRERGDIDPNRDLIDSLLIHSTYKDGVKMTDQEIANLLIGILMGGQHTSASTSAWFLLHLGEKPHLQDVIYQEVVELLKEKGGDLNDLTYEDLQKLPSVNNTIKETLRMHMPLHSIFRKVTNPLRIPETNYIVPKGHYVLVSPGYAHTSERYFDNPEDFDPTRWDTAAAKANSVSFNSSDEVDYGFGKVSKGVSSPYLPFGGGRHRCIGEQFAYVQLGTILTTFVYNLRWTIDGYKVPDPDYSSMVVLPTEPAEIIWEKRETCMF

[4] = Half life in human; format: ADME
[5] = target: GABA-A receptor; anion channel; assay: Binding affinity to GABAA receptor (unknown origin) assessed as inhibition constant; format: protein-complex assay, Homo sapiens
[6] = target: Prostaglandin E2 receptor EP2 subtype (Homo sapiens, UniProt P43116); assay: Agonist activity at human EP2 receptor expressed in HEK293 cells; format: functional, cell-based
Chain of Prostaglandin E2 receptor EP2 subtype (P43116 whole entry): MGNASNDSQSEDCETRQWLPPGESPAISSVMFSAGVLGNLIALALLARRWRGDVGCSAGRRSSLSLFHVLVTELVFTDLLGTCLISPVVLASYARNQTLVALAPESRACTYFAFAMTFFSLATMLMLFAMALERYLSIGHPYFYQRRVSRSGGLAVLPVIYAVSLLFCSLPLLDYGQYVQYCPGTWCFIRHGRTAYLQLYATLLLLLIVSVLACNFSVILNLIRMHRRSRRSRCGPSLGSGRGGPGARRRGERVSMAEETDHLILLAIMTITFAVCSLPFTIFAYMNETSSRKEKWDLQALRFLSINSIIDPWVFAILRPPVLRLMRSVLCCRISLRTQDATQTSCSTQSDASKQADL

[7] = target: T1, Receptor-type tyrosine-protein kinase FLT3 (Homo sapiens, UniProt P36888); assay: Inhibition of human FLT3 (unknown origin) using poly(Glu,Tyr) as substrate incubated for 2 hrs in presence of ATP by luminescence method
T1 sequence (P36888 whole entry): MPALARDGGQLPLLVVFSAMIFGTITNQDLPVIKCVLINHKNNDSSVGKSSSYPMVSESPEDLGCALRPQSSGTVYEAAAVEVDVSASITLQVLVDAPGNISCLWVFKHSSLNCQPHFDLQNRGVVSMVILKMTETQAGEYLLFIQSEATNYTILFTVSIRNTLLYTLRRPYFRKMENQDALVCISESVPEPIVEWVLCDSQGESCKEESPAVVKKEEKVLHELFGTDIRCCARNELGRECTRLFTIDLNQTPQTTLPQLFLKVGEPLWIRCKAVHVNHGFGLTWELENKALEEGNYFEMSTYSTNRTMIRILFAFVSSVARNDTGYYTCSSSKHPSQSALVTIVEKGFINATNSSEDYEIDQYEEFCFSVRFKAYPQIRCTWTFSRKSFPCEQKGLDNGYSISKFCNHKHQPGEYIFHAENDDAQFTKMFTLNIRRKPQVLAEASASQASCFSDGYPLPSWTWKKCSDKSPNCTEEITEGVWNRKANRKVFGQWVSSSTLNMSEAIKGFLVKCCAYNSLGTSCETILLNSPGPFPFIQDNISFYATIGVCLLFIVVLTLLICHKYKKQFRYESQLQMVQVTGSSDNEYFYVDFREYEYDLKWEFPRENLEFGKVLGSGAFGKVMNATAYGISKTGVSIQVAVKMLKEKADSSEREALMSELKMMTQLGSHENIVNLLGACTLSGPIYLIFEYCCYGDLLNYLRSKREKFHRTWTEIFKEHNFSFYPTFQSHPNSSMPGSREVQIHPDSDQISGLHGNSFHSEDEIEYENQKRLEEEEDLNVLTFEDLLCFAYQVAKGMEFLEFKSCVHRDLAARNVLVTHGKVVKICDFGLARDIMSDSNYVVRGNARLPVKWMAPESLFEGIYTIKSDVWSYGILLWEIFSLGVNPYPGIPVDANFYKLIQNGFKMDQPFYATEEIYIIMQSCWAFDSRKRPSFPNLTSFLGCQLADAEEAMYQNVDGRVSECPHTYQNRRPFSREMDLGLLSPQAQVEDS

[8] = target: Tyrosine-protein kinase JAK2 (Homo sapiens, UniProt O60674); assay: Inhibition of N-terminal human recombinant JAK2 using poly(Glu,Ala,Tyr) as substrate incubated for 2 hrs in presence of ATP by luminescence method
Chain of Tyrosine-protein kinase JAK2 (O60674 whole entry): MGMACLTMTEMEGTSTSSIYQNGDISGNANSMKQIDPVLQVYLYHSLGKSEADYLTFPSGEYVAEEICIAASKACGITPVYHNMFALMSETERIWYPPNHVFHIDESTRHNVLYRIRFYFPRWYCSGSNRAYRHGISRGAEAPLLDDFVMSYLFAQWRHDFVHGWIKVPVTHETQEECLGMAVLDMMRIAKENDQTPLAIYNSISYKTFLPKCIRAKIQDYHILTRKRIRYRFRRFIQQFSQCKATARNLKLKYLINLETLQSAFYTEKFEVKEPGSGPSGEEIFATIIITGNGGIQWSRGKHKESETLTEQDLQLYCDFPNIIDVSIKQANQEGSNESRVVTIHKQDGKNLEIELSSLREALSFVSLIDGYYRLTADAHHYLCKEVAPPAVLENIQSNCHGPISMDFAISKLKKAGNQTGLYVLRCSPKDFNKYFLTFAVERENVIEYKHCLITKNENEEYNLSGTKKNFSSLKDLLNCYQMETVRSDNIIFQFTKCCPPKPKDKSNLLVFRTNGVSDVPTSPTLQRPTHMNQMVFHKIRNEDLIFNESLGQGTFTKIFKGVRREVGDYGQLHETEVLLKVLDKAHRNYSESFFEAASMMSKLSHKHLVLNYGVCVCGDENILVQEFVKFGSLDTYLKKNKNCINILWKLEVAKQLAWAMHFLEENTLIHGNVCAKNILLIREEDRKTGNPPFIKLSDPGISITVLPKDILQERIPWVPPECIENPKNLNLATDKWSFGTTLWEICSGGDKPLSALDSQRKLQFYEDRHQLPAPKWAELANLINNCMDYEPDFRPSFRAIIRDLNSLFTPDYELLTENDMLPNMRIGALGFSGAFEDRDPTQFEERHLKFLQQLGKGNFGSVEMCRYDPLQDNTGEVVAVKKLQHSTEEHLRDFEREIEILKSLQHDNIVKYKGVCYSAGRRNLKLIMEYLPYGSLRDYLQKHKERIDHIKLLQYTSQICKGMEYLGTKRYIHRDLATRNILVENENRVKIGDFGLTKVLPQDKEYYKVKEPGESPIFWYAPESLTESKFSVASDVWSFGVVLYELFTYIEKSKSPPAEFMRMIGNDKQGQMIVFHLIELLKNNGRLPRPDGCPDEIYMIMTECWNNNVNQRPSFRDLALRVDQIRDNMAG

Chain of Structural capsid protein (Q76129 whole entry): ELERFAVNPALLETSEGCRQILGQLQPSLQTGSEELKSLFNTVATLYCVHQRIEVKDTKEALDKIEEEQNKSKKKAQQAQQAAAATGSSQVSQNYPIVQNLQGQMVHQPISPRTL

NC(=O)c1cccc(-c2cccnc2[C@H](Cc2cc(F)cc(F)c2)NC(=O)Cc2c[nH]c3ccc(O)cc23)c1
EC50 [1]: 150 nM

CC(C)n1c(=O)cc(N[C@@H](C)c2ccccc2)[nH]c1=O
EC50 [2]: 711 nM

O[C@@](Cn1cnnn1)(c1ccc(F)cc1F)C(F)(F)c1ccc(-c2ccc(OCC(F)(F)F)cc2)cn1 [OTESECONAZOLE]
Kd [3]: ≤ 39 nM

Cn1nc(N)c2cccc(-c3cccnc3[C@H](Cc3cc(F)cc(F)c3)NC(=O)Cn3nc(C(F)(F)F)c4c3C(F)(F)[C@@H]3C[C@H]43)c21
EC50 [1]: 19 nM

Cc1[nH]c2ccccc2c1CC(=O)N[C@@H](Cc1ccccc1)C(=O)N(C)c1ccccc1
half-life [4]: 3 min

CC(=O)[C@H]1CC[C@H]2[C@@H]3CC[C@H]4C[C@](C)(O)CC[C@]4(C)[C@H]3CC[C@]12C [GANAXOLONE]
Ki [5]: 790 nM

NC(=O)c1cccc(-c2cccnc2[C@H](Cc2cc(F)cc(F)c2)NC(=O)Cn2nc(C(F)(F)F)c3c2C(F)(F)[C@@H]2C[C@H]32)c1
EC50 [1]: 167 nM

CC(C)(C#Cc1ccc(-c2ccc(Cl)c3c(NS(C)(=O)=O)nn(CC(F)(F)F)c23)c([C@H](Cc2cc(F)cc(F)c2)NC(=O)Cn2nc(C(F)(F)F)c3c2C(F)(F)[C@@H]2C[C@H]32)n1)S(C)(=O)=O
EC50 [1]: 0.05 nM

Cn1nc(NS(C)(=O)=O)c2cccc(-c3cccnc3[C@H](Cc3cc(F)cc(F)c3)NC(=O)Cn3nc(C(F)(F)F)c4c3C(F)(F)[C@@H]3C[C@H]43)c21
EC50 [1]: 12 nM

CC(C)OC(=O)CNc1cccc(CN(Cc2ccc(-n3cccn3)cc2)S(=O)(=O)c2cccnc2)n1 [OMIDENEPAG ISOPROPYL]
EC50 [6]: 1.1 nM

COc1ccc(N(C)C(=O)[C@H](Cc2ccccc2)NC(=O)Cc2c[nH]c3ccc(O)cc23)cc1
EC50 [1]: 52 nM

COc1cc(-c2ccnc(Nc3cccc(N(C)C)c3)n2)ccc1O
IC50 [7]: 22 nM
IC50 [8]: 23 nM

Cn1nc(NS(C)(=O)=O)c2c(Cl)ccc(-c3ccc(C#CC(C)(C)S(C)(=O)=O)nc3[C@H](Cc3cc(F)cc(F)c3)NC(=O)Cn3nc(C(F)(F)F)c4c3C(F)(F)[C@@H]3C[C@H]43)c21
EC50 [1]: 0.2 nM
